From ChEMBL document CHEMBL5512621, “Overview of the development of protein arginine methyltransferase modulators: Achievements and future directions” (Eur J Med Chem, 2024)

Assays:
[1] = target: T1, Protein arginine N-methyltransferase 7 (Homo sapiens, UniProt Q9NVM4); assay: Inhibition of PRMT7 (unknown origin)
T1 sequence (Q9NVM4 whole entry): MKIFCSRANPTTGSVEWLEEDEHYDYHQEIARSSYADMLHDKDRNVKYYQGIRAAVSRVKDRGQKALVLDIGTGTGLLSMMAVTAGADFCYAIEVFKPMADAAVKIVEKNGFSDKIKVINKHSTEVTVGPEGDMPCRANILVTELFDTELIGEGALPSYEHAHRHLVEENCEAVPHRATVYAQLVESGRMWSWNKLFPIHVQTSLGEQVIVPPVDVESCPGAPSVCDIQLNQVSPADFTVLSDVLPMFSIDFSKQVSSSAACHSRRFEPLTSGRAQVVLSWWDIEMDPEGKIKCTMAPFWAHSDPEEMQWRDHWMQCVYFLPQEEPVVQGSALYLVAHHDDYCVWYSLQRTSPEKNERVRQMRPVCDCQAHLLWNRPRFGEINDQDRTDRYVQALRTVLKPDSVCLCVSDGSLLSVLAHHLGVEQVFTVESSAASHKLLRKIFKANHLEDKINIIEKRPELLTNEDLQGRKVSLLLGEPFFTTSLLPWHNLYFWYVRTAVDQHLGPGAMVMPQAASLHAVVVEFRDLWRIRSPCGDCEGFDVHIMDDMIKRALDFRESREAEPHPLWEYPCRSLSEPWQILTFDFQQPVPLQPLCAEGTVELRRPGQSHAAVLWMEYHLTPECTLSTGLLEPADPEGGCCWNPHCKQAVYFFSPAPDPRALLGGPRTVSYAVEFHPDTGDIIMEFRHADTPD

PC-3 = assay: Inhibition of cell growth in human PC-3 cells; assay type: functional, cell-based
JeKo-1 = assay: Inhibition of cell growth in human JeKo-1 cells; assay type: functional, cell-based
ES-2 = assay: Inhibition of cell growth in human ES2 cells; assay type: functional, cell-based
[2] = target: T2, Protein arginine N-methyltransferase 7 (Mus musculus, UniProt Q922X9); assay: Inhibition of PRMT7 in mouse C2C12 cells assessed as reduction in HSP70 methylation; assay type: cell-based
T2 sequence (Q922X9 whole entry): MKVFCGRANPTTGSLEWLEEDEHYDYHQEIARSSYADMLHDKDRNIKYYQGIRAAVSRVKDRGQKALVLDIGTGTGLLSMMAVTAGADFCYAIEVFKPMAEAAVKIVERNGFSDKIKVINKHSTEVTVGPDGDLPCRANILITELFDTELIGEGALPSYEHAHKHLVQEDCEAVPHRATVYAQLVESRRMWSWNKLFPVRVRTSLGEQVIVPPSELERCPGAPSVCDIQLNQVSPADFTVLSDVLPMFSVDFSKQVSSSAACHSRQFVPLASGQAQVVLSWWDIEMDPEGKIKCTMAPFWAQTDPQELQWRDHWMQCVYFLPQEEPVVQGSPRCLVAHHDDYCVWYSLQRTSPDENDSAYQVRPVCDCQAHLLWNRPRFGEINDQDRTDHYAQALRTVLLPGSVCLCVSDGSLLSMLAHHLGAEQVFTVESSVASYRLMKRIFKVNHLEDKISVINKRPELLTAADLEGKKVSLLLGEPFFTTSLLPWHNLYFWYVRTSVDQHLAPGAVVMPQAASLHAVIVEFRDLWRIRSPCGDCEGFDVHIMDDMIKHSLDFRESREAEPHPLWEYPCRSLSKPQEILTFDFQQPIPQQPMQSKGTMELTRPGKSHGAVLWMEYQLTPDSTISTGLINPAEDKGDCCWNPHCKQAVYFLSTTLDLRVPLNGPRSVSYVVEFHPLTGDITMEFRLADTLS

IC50 [1] | IC50 (PC-3) | IC50 [2] | Structure (SMILES) | IC50 (JeKo-1) | IC50 (ES-2)
2.1 µM | < 10 µM | – | COc1cc(-c2ncc(F)c(Nc3ccc4cc(C)cc(N)c4c3)n2)cc(OC)c1OC | < 10 µM | < 10 µM
– | – | 2.4 µM | CC1=C(C)C(=O)C(C(C)(C)CC(=O)N(CCCCSC[C@H]2O[C@@H](n3cnc4c(N)ncnc43)[C@H](O)[C@@H]2O)Cc2ccc(-c3ccc(Cl)cc3)cc2)=C(C)C1=O | – | –
